In ChEMBL document CHEMBL1143193, “A new family of H3 receptor antagonists based on the natural product Conessine” (Bioorg Med Chem Lett, 2008):
Activity calls are given as the source filed them. The rule behind the calls is not given here.

Tests used:
Histamine H3 receptor = Histamine H3 receptor (Rattus norvegicus, UniProt Q9QYN8); assay: Displacement of N-[3H]methylhistamine from histamine H3 receptor in rat cortex
[1] = target: Histamine H3 receptor (Rattus norvegicus) (UniProt Q9QYN8); assay: Displacement of N-[3H]methylhistamine from histamine H3 receptor in rat cortex at < 5 uM
Histamine H3 receptor (Rattus norvegicus), sequence (Q9QYN8 whole entry): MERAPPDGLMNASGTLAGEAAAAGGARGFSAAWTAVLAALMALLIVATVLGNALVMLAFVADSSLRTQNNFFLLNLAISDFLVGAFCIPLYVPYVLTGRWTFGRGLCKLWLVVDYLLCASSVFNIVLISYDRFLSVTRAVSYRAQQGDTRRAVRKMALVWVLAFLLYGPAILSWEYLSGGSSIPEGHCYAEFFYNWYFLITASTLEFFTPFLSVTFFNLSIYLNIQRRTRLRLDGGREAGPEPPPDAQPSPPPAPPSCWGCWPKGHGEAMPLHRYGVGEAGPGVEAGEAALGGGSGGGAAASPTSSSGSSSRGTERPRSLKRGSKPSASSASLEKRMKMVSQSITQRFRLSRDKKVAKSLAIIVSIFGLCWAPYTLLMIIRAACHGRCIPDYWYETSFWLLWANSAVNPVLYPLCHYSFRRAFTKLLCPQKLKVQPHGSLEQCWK

Homo sapiens [2] = species: Homo sapiens; assay: Selectivity for human histamine H3 receptor over human histamine H4 receptor
Homo sapiens [3] = species: Homo sapiens; assay: Selectivity for human histamine H3 receptor over human histamine H1 receptor
Homo sapiens [4] = species: Homo sapiens; assay: Selectivity for human histamine H3 receptor over human histamine H2 receptor
[5] = Oral bioavailability in rat; assay type: ADME, organism-based; settings: in vivo
Rattus norvegicus = species: Rattus norvegicus; assay: Inhibition of R-alpha-methylhistamine-induced drinking response in rat dipsogenia model; assay type: functional
[6] = Half life in rat; assay type: ADME, organism-based; settings: in vivo

Histamine H3 receptor, sequence (Q9QYN8 whole entry): as above

SMILES	Ki (Histamine H3 receptor; read-out: Ki) [nM]	other results
OC[C@@H]1CCCN1CCc1ccc(C2=CCC3CN(Cc4ccccc4)CC23)cc1 (stereo partly drawn)	0.16	
C1=C(c2ccc(CCN3CCc4ccccc43)cc2)C2CN(Cc3ccccc3)CC2C1 (stereo not drawn)		Activity [1]: inactive
CN(C)CCc1ccc(C2=CCC3CN(Cc4ccccc4)CC23)cc1 (stereo not drawn)	2.3	
C1=C(c2ccc(CCN3Cc4ccccc4C3)cc2)C2CN(Cc3ccccc3)CC2C1 (stereo not drawn)	256	
C[C@H]1[C@H]2CC[C@H]3[C@@H]4CC=C5C[C@@H](N(C)C)CC[C@]5(C)[C@H]4CC[C@]23CN1C [CONESSINE]	66	
O=C1CCCN1CCc1ccc(C2=CCC3CN(Cc4ccccc4)CC23)cc1 (stereo not drawn)	310	Ki (Histamine H3 receptor; read-out: Log Ki (converted)): 132 nM
C1=C(c2ccc(CCN3CCOCC3)cc2)C2CN(Cc3ccccc3)CC2C1 (stereo not drawn)	1.7	
CN1CCN(CCc2ccc(C3=CCC4CN(Cc5ccccc5)CC34)cc2)CC1 (stereo not drawn)	58	
C1=C(c2ccc(CCN3CCCCC3)cc2)C2CN(Cc3ccccc3)CC2C1 (stereo not drawn)	0.4	
CC1CCCN1CCc1ccc(C2=CCC3CN(Cc4ccccc4)CC23)cc1 (stereo not drawn)	0.05	
OC[C@H]1CCCN1CCc1ccc(C2=CCC3CN(Cc4ccccc4)CC23)cc1 (stereo partly drawn)	0.51	
FC1(F)CCN(CCc2ccc(C3=CCC4CN(Cc5ccccc5)CC34)cc2)C1 (stereo not drawn)	2.8	
C1=C(c2ccc(CCN3CCC3)cc2)C2CN(Cc3ccccc3)CC2C1 (stereo not drawn)	2.4	

Now from value to compound, other results behind:

Ki (Histamine H3 receptor; read-out: Ki) [nM]	SMILES	other results
2	C1=C(c2ccc(CCN3CCCC3)cc2)C2CN(c3ccccn3)CC2C1 (stereo not drawn)	
0.05	C1=C(c2ccc(CCN3CCCC3)cc2)[C@@H]2CN(Cc3ccccc3)C[C@@H]2C1	Selectivity ratio (Homo sapiens [2]): > 1000; Selectivity ratio (Homo sapiens [3]): > 1000; Selectivity ratio (Homo sapiens [4]): > 1000
0.75	C1=C(c2ccc(CCN3CCCC3)cc2)[C@H]2CN(Cc3ccccc3)C[C@H]2C1	
0.3	C1=C(c2ccc(CCN3CCCC3)cc2)C2CN(Cc3ccccc3)CC2C1 (stereo not drawn)	
67	C1=C(c2ccc(CCN3CCCC3)cc2)C2CN(c3ccccc3)CC2C1 (stereo not drawn)	
36	C1=C(c2ccc(CCN3CCCC3)cc2)C2CN(c3ncccn3)CC2C1 (stereo not drawn)	
0.9	CC(C)N1CC2CC=C(c3ccc(CCN4CCCC4)cc3)C2C1 (racemic)	
0.29	CC(C)N1C[C@@H]2CC=C(c3ccc(CCN4CCCC4)cc3)[C@@H]2C1	
0.07	C1=C(c2ccc(CCN3CCCC3)cc2)[C@@H]2CN(CC3CC3)C[C@@H]2C1	Selectivity ratio (Homo sapiens [2]): > 1000; bioavailability [5]: 78%; Activity (Rattus norvegicus): Dose-dependent effect; minimal effective dose (Rattus norvegicus; read-out: MED): 3 mg/kg; Selectivity ratio (Homo sapiens [3]): > 1000; half-life [6]: 6 h; Selectivity ratio (Homo sapiens [4]): > 1000
0.1	C1=C(c2ccc(CCN3CCCC3)cc2)C2CN(CC3CC3)CC2C1 (racemic)	Ki (Histamine H3 receptor; read-out: Log Ki (converted)): 0.112 nM
7	C1=C(c2ccc(CCN3CCCC3)cc2)C2CN(c3cncnc3)CC2C1 (stereo not drawn)	
0.4	C1=C(c2ccc(CCN3CCCC3)cc2)C2CN(C3CCCC3)CC2C1 (racemic)	
0.08	C1=C(c2ccc(CCN3CCCC3)cc2)[C@@H]2CN(C3CCCC3)C[C@@H]2C1	
